Tests used:
Nucleic Acid [1] = test: Monointeraction into calf thymus DNA at pH 5; type: nucleic-acid assay
Nucleic Acid [2] = test: Monointeraction into calf thymus DNA at pH 7.4; type: nucleic-acid assay

Ka (Nucleic Acid [1]): 5e+08 M⁻¹
Ka (Nucleic Acid [2]): 2e+07 M⁻¹
Compound: COc1ccc2[nH]c3ccc4cc[n+](CCN5CCC(C6CCN(CC[n+]7ccc8ccc9[nH]c%10ccc(OC)cc%10c9c8c7)CC6)CC5)cc4c3c2c1

Source: ChEMBL document CHEMBL1124465, “Dynamics and thermodynamics of the counterion effect in a 7H-pyridocarbazole dimer (ditercalinium). Hypothesis of a nonbisintercalative binding mode to calf thymus DNA at high drug/base ratio” (J Med Chem, 1989)
